TGI and GI50 data for 27 molecules are collected here from PubChem BioAssay (NCI).

What all share (experiment): growth of human tumour cells (NCI), 48 h
Test [1] has as its system 786-0 renal.
Test [2] has as its system CCRF-CEM leukemia.
Test [3] relates to HS 578T breast.
The subject of test [4] is NCI-H226 lung.
Test [5] has as its system OVCAR-8 ovarian.
Test [6] has as its system SF-268 CNS.
The test system of test [7] is SF-539 CNS.
In test [8] the test system is SK-OV-3 ovarian.
For test [9], the system named is SR leukemia.
Test [10] deals with SW-620 colon.

SMILES strings stand for the structures.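 Five concentrations, 48 hours, 96-well plates. GI50 = concentration required for 50% inhibition of growth. The concentration for full growth arrest is given as TGI.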

For `Cc1cc(S(=O)(=O)Nc2nnc3cnc4ccccc4n23)c(S)cc1Cl`, the TGI in test [1], in test [2], in [3], in [4], in test [5] and in test [6] was over 100 µM in each case. Further, the TGI in [7], in [8], in [9] and in test [10] was over 100 µM each time.

For `COC(=O)N[C@H](C(=O)O)C(C)O[Si](C)(C)C(C)(C)C` (some centres not stated), the TGI in test [1], in test [2], in test [3], in [4], in [5] and in [6] was over 100 µM in each case. The TGI in test [7], in [8], in test [9] and in test [10] was over 100 µM in each case.

Turning to `CC(C)(C)c1cc(OCc2nn3c(Cc4ccccc4)nnc3s2)c(Cl)cc1OCc1nn2c(Cc3ccccc3)nnc2s1`, the TGI in test [1], in [2], in [3], in test [4], in test [5] and in [6] was over 100 µM throughout. For the same molecule, the TGI in test [7], in test [8], in test [9] and in [10] was over 100 µM each time.

With `Clc1cccc(NN=Nc2ccc(-c3nc4ccccc4s3)cc2)c1`, the TGI in test [1] was 51.4 µM; in test [2] it was 37.7 µM; in test [3], over 100 µM; in test [4] it was over 100 µM; in test [5] it was 45.9 µM; in [7], over 100 µM. For the same molecule, the TGI in [8] was over 100 µM; in test [9], 43 µM; in test [10], over 100 µM.

Regarding `Cc1cc(S(=O)(=O)Nc2nc3ccccc3nc2-c2ccc(Cl)cc2)c(S)cc1Cl`, the TGI turned out to be 43.5 µM in test [1]; 58.1 µM in test [2]; 73 µM in test [3]; 47.9 µM in test [4]; 51.6 µM in test [5]; 35.3 µM in test [6]. For the same molecule, the TGI in test [7] was 34 µM; in [8], 31.1 µM; in test [9] it was 37.8 µM.

Consider `CSc1ccn(C2CC(F)C(CO)O2)c(=O)n1` (configuration not stated), for which the TGI in test [1], in test [2], in test [3], in test [4], in test [5] and in [6] was over 100 µM in each case. Besides, the TGI in test [7], in test [8], in test [9] and in [10] was over 100 µM throughout.

With `Cc1ccc(-c2nc(N/N=C/c3ccc(O)cc3)c3ccccc3n2)cc1`, the TGI was 71.9 µM in test [1]; over 100 µM in test [2]; over 100 µM in [3]; over 100 µM in test [4]; over 100 µM in [5]; over 100 µM in test [6]. Further, the TGI in test [7], in test [8], in [9] and in test [10] was over 100 µM in each case.

For the molecule `O=C(Nc1cccc([N+](=O)[O-])c1)c1n[nH]n(-c2cccc([N+](=O)[O-])c2)c1=O`, the TGI in test [1], in test [2], in [3], in test [4], in [5] and in [6] was over 100 µM in each case. Moreover, the TGI in test [7], in test [8], in test [9] and in [10] was over 100 µM in each case.

Consider `c1csc(-c2ccsc2-c2cccs2)c1`, for which the TGI in test [1], in [2], in [3], in test [4], in [5] and in test [6] was over 100 µM in each case. Moreover, the TGI in [7] is over 100 µM; in test [8] it was over 100 µM; in test [9], 21.3 µM; in test [10] it was over 100 µM.

With `COC1=CC(=O)CC(C)C12Oc1c(Cl)c(OC)cc(OC)c1C2=O` (configuration not stated), the TGI in [1] was over 100 µM; in [2] it was 98.3 µM; in test [3], over 80 µM; in [4], over 100 µM; in test [5], over 100 µM; in [6] it was over 100 µM. In addition, the TGI is 42.1 µM in test [7], over 100 µM in test [8], over 28.2 µM in test [9] and over 100 µM in [10].

With `CCOC(=O)C(Cc1ccc(OC(=O)OC(C)(C)C)cc1)NC(=O)OC(C)(C)C` (configuration not stated), the TGI in test [1], in test [2], in test [3], in test [4], in test [5] and in [6] was over 100 µM each time. Moreover, the TGI in test [7] was over 100 µM; in test [8] it was over 100 µM; in test [9] it was 67.5 µM; in test [10] it was over 100 µM.

With `C=C1CC(Cn2ccc(=O)[nH]c2=O)(c2ccc(Cl)cc2)OC1=O` (configuration not stated), the TGI in [1] was 4.83 µM; in test [2] it was 3.46 µM; in test [3], 38.7 µM; in test [4], 49.9 µM; in [5], 24.5 µM; in test [6], 43.5 µM. The TGI was determined as 30.4 µM in [7], 28.3 µM in [8], 11.7 µM in [9] and 4.31 µM in [10].

With `COC1=CC2(CC(OC)=C1OC)OC21COc2ccccc2C1=O` (configuration not stated), the TGI in test [1], in test [2], in test [3], in test [4], in test [5] and in test [6] was over 100 µM in each case. The TGI was over 100 µM in test [7], over 100 µM in [8], 89.7 µM in [9] and over 100 µM in [10].

Turning to `COc1cc2c3c(n(C)c(=O)c2cc1OC)-c1cc2c(cc1/C3=C\CCCI)OCO2`, the TGI in [1] is over 100 µM; in [2], over 100 µM; in [3] it was over 75.5 µM; in test [4], over 100 µM; in test [5], over 100 µM; in test [6], over 100 µM. The TGI in [7] was over 95.3 µM; in test [8] it was over 100 µM; in test [9], 23.2 µM; in test [10], over 100 µM.

Consider `CCCCCCCCCCCCCCC(O)C[N+](C)(CCO)CCO` (configuration not stated), for which the TGI amounted to 4.78 µM in test [1]; 9.82 µM in test [2]; 7.87 µM in [3]; 5.63 µM in test [4]; 18.8 µM in [5]; 5.16 µM in test [6]. Besides, the TGI in test [7] amounted to 7.21 µM; in test [8], 30.7 µM; in test [9], 10.1 µM; in test [10] it was 23.7 µM.

As for `COC(=O)c1ccc(C)cc1CC1Cc2ccc(C)cc2C1=O` (configuration not stated), the TGI was 48.5 µM in test [1]; 74.5 µM in [2]; 48.9 µM in test [3]; 27.2 µM in test [4]; 57.5 µM in test [5]; 61.7 µM in [6]. For the same molecule, the TGI was 19.5 µM in [7], 59.5 µM in test [8], 8.68 µM in test [9] and over 100 µM in test [10].

In the case of `O=C1C(Cl)=C(N(C(=O)c2ccccc2)C(=O)c2ccccc2)C(=O)c2ccccc21`, the TGI in [1] is 34.7 µM; in [2] it was 18.6 µM; in [3], 98 µM; in test [4] it was over 100 µM; in test [5], over 100 µM; in [6], 21.7 µM. The TGI in test [7] is 19.6 µM; in test [8], over 100 µM; in test [9], 81.2 µM; in test [10], 24.3 µM.

As to `COc1ccccc1NC(=O)CC(=O)N1N=C(N2c3ccccc3Sc3ccccc32)CC1c1ccccc1` (configuration not stated), the TGI in [1], in test [2], in test [3], in test [4], in test [5] and in test [6] was over 100 µM in each case. Also, the TGI in test [7], in test [8], in test [9] and in test [10] was over 100 µM each time.

Take `CC(C)=CCc1[nH]c2ccccc2c1C1=C(O)C(=O)C(c2c(CC=C(C)C)[nH]c3ccccc23)=C(O)C1=O`: the TGI in test [1] was 10.2 µM; in [2] it was 6.83 µM; in test [3] it was 73.8 µM; in [4], 4.6 µM; in test [5], 7.78 µM; in test [6] it was 7.11 µM. The values for the TGI in [8], in [9] and in [10] were 4.13 µM, 4.44 µM and 14.9 µM, respectively.

Consider `O=C(NC(=O)c1cc(-c2ccccc2)n[nH]1)c1ccccc1`, for which the TGI in [1], in test [2], in [3], in test [4], in test [5] and in test [6] was over 100 µM in each case. The TGI in test [7] was over 100 µM; in test [8], over 100 µM; in [9], 79.2 µM; in test [10], over 100 µM.

With `CC(C)(C)OC(=O)CN1CCNCCN(CC(=O)OC(C)(C)C)CCNCC1`, the TGI in test [1], in test [2], in test [3], in test [4], in test [5] and in [7] was over 100 µM throughout. The TGI in [8], in test [9] and in test [10] was over 100 µM each time.

In the case of `O=C(N=c1ccc2nc(=O)[nH]n(O)c-2c1)C(F)(F)F`, the TGI in test [1], in [2], in [3], in test [4], in [5] and in test [6] was over 100 µM in each case. The TGI in [7], in [8], in test [9] and in [10] was over 100 µM in each case.

As to `O=C(O)c1cnc(-n2[nH]c3c(c2=O)CCCC3)[nH]c1=O`, the TGI in test [1], in test [2], in test [3], in [4], in [5] and in [6] was over 100 µM in each case. Also, the TGI in [7], in test [8], in test [9] and in test [10] was over 100 µM in each case.

With `Nc1[nH]nc2nc3ccccc3nc12`, the TGI in test [2], in test [3], in [4], in test [5], in test [6] and in [7] was over 100 µM in each case. The TGI in test [8] was over 100 µM; in test [9] it was 75.2 µM; in [10], over 100 µM.

In the case of `CN(C)c1ccc(/C=C(\NC(=O)c2ccccc2)C2=NC(CCC(=O)O)C(=O)O2)cc1` (configuration not stated), the TGI in [1], in test [2], in test [3], in [4], in test [5] and in test [6] was over 50 µM each time. For the same molecule, the TGI in [7], in test [8], in test [9] and in test [10] was over 50 µM each time.

Take `COc1cc(OC)cc(-c2n/c(=C\c3c(O)[nH]c4ccc(OC)cc34)cc3c2=Nc2ccccc2-3)c1`: the GI50 in [2] is 2.78 µM; in [3], 16.1 µM; in test [4], 26.6 µM; in test [5] it was 12.1 µM; in [6], 10.2 µM; in test [7], 10.4 µM. The GI50 was 25.8 µM in [8], 2.76 µM in test [9] and 3.92 µM in test [10]. The TGI in test [2] came out at 12.2 µM; in [3], 47.7 µM; in [4], 56.9 µM; in test [5], 32.4 µM; in test [6] it was 41.2 µM; in [7], 25.4 µM. Moreover, the TGI in [8] came out at 53.3 µM; in test [9] it was 10.6 µM; in [10] it was 22.4 µM.

With `Cc1sc2c(c1C)/C(=N\O)c1cccn1-2`, the TGI in test [1] was 52.3 µM; in test [2], over 100 µM; in test [3] it was 46 µM; in test [4], over 100 µM; in test [5] it was over 100 µM; in test [6] it was over 100 µM. Further, the TGI in test [8], in [9] and in test [10] was over 100 µM in each case.
